Laboratory results: patent US20110105389A1 (priority 2009, published 2011)
Read-outs that look alike come from different tables or passages of the source. Blank lines part the entries; values can stand above or below the compound they belong to.

Experiments:
[1] = target: T1, ghrelin receptor (HEK-GHSR1 stable cells) (Homo sapiens, UniProt Q92847); test: Ghrelin receptor inverse agonist assay (HTRF IP-one), Method B4; type: cell-based
T1 construct: expressed in transfected cells
Summary of the method: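 HEK cells stably expressing GHSR1, seeded at 100 000 cells/well overnight, exposed to compound for 30 min at 37° C. Cells then lysed and IP1 accumulation measured by HTRF (d2 plus anti-IP1 cryptate, 1 h at room temp). Wells lacking d2 served as negative control.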

[2] = Pharmacokinetic analysis (intravenous and oral), Method B9; type: in vivo; conditions: for % F: 2 mg/mL intravenous and 8 mg/mL oral typically employed; for Tmax: individual values
Excerpt: B9. Pharmacokinetic Analysis
The pharmacokinetic (PK) behavior of compounds of the invention and their pharmaceutical compositions can be ascertained by methods well known to those skilled in the art and can be used to investigate the pharmacokinetic parameters (elimination half-life, total plasma clearance, etc.) for intravenous, subcutaneous and oral administration of these substances. (Wilkinson, G. R. “Pharmacokinetics: The Dynamics of Drug Absorption, Distribution, and Elimination” in Goodman & Gilman's The Pharmacological Basis of Therapeutics, Tenth Edition, Hardman, J. G.; Limbird, L. E., Eds., McGraw Hill, Columbus, Ohio, 2001, Chapter 1.) See also U.S. Pat. Nos. 7,476,653; 7,491,695; Intl. Pat. Appl. WO 2008/033328 and U.S. Patent Appl. Publ. 2008/0194672. As an example, compound 1505 has the PK profile below.
The determination of PK parameters for additional representative compounds of the invention is presented in the Examples.
A detailed analysis of the pharmacokinetic profile of representative compounds of the invention was conducted using the procedures outlined in Method B9.
A dose level of 2 mg/mL for intravenous administration and 8 mg/mL for oral administration were typically employed.

[3] = Plasma protein binding (equilibrium dialysis), Method B5; type: in vitro ADME; conditions: 60 min at 37° C., typically 10 μM; for fraction unbound at 60 min, 10 μM: human plasma
Excerpt: B5. Plasma Protein Binding
The pharmacokinetic and pharmacodynamic properties of drugs are largely a function of the reversible binding of drugs to plasma or serum proteins such as albumin and α1-acid glycoprotein. In general, only unbound drug is available for diffusion or transport across cell membranes, and for interaction at the pharmacological target. On the other hand, drugs with low plasma protein binding generally have large volumes of distribution and rapid clearance since only unbound drug is available for glomerular filtration and, in some cases, hepatic clearance. Thus, the extent of plasma protein binding can influence efficacy, distribution and elimination. The ideal range for plasma protein binding is in the range of 87-98% for most drug products.
Protein binding studies were performed using human plasma. Briefly, 96-well microplates were used to incubate various concentrations of the test article for 60 min at 37° C. A concentration of 10 μM was a typical selection to be employed in this study. Bound and unbound fractions are separated by equilibrium dialysis, where the concentration remaining in the unbound fraction is quantified by LC-MS or LC-MS-MS analysis. […].

[4] = system: rat stomach fundus strips; test: Ex-vivo potency evaluation on the rat stomach fundus (inhibition of ghrelin-induced contractility), Method B10; conditions: EFS
Method: B10. Ex-vivo Potency Evaluation on the Rat Stomach Fundus
Fundus strips (approximately 0.4×1 cm) were cut from the stomach of adult male Wistar rats parallel to the circular muscle fibers. They were placed between two platinum ring electrodes, 1 cm apart (Radnoti, ADlnstruments, USA) in 10 ml tissue baths containing Krebs solution bubbled with 5% CO2 in O2 and maintained at 37° C. Tissues were suspended under 1.5 g resting tension. Changes of tension were measured isometrically with force transducers and recorded with a PowerLab 8/30 data acquisition system (ADlnstruments, USA). Tissues were allowed to equilibrate for 60 min during which time bath solutions were changed every 15 min.
EFS was achieved by applying 0.5 ms pulses, 5 Hz frequency, at a maximally effective voltage of 70 V. EFS was applied for 30 sec at 3 min intervals for a 30 min initial period. This initial period was separated by a […] interval with wash out of the bath solution. Then, a second period of stimulation was started. […] Responses to the agents were measured and expressed as % of the mean of three or four pre-drug responses to EFS. All compounds were dissolved at 1 mM in distilled water or MeOH, as stock solutions.
IC50 values for the inhibition of ghrelin-induced contractility by representative compounds of the invention are presented in Table 7.

CYP2D6 = CYP2D6 (Homo sapiens, UniProt P10635); test: biochemical
Chain of CYP2D6 (P10635 whole entry): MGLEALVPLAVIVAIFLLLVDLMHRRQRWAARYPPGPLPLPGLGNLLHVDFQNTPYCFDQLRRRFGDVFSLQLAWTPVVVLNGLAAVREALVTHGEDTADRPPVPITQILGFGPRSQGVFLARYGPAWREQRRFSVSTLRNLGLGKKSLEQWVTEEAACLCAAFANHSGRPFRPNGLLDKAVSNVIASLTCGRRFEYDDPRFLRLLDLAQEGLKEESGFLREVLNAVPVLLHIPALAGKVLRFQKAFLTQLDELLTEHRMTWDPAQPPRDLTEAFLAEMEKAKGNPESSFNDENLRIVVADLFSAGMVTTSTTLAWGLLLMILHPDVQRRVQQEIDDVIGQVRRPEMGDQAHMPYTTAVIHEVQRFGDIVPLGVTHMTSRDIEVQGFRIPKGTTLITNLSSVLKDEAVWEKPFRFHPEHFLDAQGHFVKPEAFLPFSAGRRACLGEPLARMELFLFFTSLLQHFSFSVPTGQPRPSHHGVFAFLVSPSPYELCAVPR

CYP3A4 = CYP3A4 (Homo sapiens, UniProt P08684); test: biochemical
Chain of CYP3A4 (P08684 whole entry): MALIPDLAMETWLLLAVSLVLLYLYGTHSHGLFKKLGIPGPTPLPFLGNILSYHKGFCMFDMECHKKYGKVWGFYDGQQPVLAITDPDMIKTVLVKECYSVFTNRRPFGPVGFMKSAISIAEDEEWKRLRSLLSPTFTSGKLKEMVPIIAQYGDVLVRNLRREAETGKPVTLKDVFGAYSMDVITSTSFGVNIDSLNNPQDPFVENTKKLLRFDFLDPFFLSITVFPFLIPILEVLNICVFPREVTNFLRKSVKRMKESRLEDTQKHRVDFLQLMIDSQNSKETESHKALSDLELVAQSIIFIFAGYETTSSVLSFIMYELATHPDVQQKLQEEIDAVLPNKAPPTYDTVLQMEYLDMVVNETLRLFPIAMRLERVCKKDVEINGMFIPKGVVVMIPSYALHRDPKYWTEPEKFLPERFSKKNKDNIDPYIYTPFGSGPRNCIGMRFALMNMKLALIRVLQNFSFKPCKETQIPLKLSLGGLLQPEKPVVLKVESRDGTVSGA

[5] = inverse agonist at the ghrelin receptor, Method B4
[6] = Table 10b, 2 mg/mL intravenous typically employed
[7] = plasma, Table 10b, 2 mg/mL intravenous typically employed

T1 sequence (Q92847 whole entry): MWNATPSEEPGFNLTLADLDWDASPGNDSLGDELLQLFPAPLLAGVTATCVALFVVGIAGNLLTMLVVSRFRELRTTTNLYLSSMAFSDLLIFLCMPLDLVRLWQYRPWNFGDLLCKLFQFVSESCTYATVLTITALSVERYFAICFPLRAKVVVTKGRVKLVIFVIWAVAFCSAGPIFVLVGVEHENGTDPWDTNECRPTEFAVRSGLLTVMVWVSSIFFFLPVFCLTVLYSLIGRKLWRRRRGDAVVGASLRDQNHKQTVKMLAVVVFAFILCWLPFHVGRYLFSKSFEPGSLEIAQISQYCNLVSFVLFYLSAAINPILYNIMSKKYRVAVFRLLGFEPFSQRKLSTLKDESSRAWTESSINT

SMILES: CC(O)[C@H]1C(=O)N[C@H](Cc2c[nH]c3ccccc23)C(=O)N[C@H](C)C#Cc2ccc(F)cc2O[C@H](C)CN[C@@H](C2(C)CC2)C(=O)N1C (stereo partly shown) [Compound 1720]
IC50 [1, 5]: 100 to 500 nM | Cl [2, 6]: 33 ± 12 mL/min/kg | t1/2 [2, 6]: 1.17 ± 0.25 h

SMILES: CC(C)[C@@H]1NCCOc2ccccc2C2CCC(C2)NC(=O)[C@@H](Cc2ccc(F)cc2)NC(=O)[C@H](C(C)O)N(C)C1=O (stereo partly shown) [Compound 1903]
fraction unbound at 60 min, 10 μM [3]: 0.159 | IC50 [4]: 1.6 nM | IC50 (CYP2D6): 8000 nM | IC50 (CYP3A4): 9000 nM

SMILES: CC(C)[C@@H]1NCC2CCc3cccc(c3O2)CCCNC(=O)[C@@H](Cc2ccccc2)NC(=O)[C@H](C(C)O)N(C)C1=O (stereo partly shown) [Compound 1777]
IC50 [1, 5]: 50 to 100 nM | Binding (%), Human Plasma Protein Binding [3]: 95.8% | AUCinf ([2]; Intravenous, 2 mg/kg): 369904 ± 127112 ng·min/mL | Cl ([2]; Intravenous, 2 mg/kg): 6 ± 2 mL/min/kg | Vz ([2]; Intravenous, 2 mg/kg): 0.882 ± 0.272 L/kg | t1/2 ([2]; Intravenous, 2 mg/kg): 1.78 ± 0.067 h | AUCinf ([2]; Oral, 8 mg/kg): 190433 ± 114760 ng·min/mL | Cmax ([2]; Oral, 8 mg/kg): 1075 ± 772 ng/mL | F ([2]; Oral, 8 mg/kg): 13 ± 8% | Tmax ([2]; Oral, 8 mg/kg): 15/30/15/15/15/15 | IC50 [4]: 7.8 nM

SMILES: CC[C@@H]1C#Cc2ccc(F)cc2O[C@H](C)CN[C@@H](C2(C)CC2)C(=O)N(C)[C@@H](C(C)O)C(=O)N[C@H](Cc2c[nH]c3ccccc23)C(=O)N1 (stereo partly shown) [Compound 1707]
IC50 [1, 5]: 100 to 500 nM | Binding (%), Human Plasma Protein Binding [3]: 99.6% | Cl [2, 6]: 8 ± 4 mL/min/kg | t1/2 [2, 6]: 2.17 ± 0.433 h

SMILES: CC(C)[C@@H]1NCCOc2ccccc2C2CCC(C2)NC(=O)[C@@H](Cc2c[nH]c3ccccc23)NC(=O)[C@H](C(C)O)N(C)C1=O (stereo partly shown) [Compound 1843]
IC50 [1, 5]: 10 to 50 nM | Binding (%), Human Plasma Protein Binding [3]: 92.1% | IC50 [4]: 2.3 nM

SMILES: CC(C)[C@@H]1NCCOc2ccccc2C2CCC(C2)NC(=O)[C@@H](Cc2ccccc2)NC(=O)[C@H](C(C)O)N(C)C1=O (stereo partly shown) [Compound 1848]
fraction unbound at 60 min, 10 μM [3]: 0.207 | F ([2]; Oral, 8 mg/kg): 11 ± 2% | Tmax ([2]; Oral, 8 mg/kg): 30/30 | AUC(0-inf) ([2]; plasma, Intravenous, 2 mg/kg): 2600 ng·h/mL | clearance ([2]; plasma, Intravenous, 2 mg/kg): 17 ± 9 mL/min/kg | half-life ([2]; plasma, Intravenous, 2 mg/kg): 1.8 ± 0.85 h | Vd ([2]; plasma, Intravenous, 2 mg/kg, read-out: Vz): 2.55 ± 1.47 L/kg | AUC(0-inf) ([2]; plasma, Oral, 8 mg/kg): 1110 ng·h/mL | Cmax ([2]; plasma, Oral, 8 mg/kg, read-out: Cmax): 421 ± 16 ng/mL | IC50 [4]: 15 nM | IC50 (CYP2D6): 14100 nM | IC50 (CYP3A4): 8000 nM

SMILES: CC(O)[C@H]1C(=O)N[C@H](Cc2ccccc2)C(=O)NCC#Cc2ccc(F)cc2OCCN[C@@H](C2(C)CC2)C(=O)N1C (stereo partly shown) [Compound 1918]
IC50 [1]: 50 to 100 nM | clearance [2, 7]: 14 ± 7 mL/min/kg | half-life [2, 7]: 1.9 ± 0.883 h | IC50 [4]: 26 nM | IC50 (CYP2D6): 8100 nM | IC50 (CYP3A4): 16300 nM

Further lines, results first:

IC50 [1, 5]: 100 to 500 nM | Binding (%), Human Plasma Protein Binding [3]: 98.2%
SMILES: CC(C)C1NCCOc2ccccc2C#CCNC(=O)C(Cc2c[nH]c3ccccc23)NC(=O)C(C(C)O)N(C)C1=O (stereo not shown) [Compound 1692]

IC50 [1, 5]: 50 to 100 nM | % F ([2]; Table 10b): 17 ± 6% | Cl [2, 6]: 5 ± 1 mL/min/kg | t1/2 [2, 6]: 2.7 ± 0.067 h
SMILES: CC[C@@H]1C#Cc2ccccc2O[C@H](C)CN[C@@H](C2(C)CC2)C(=O)N(C)[C@@H](C(C)O)C(=O)N[C@H](Cc2c[nH]c3ccccc23)C(=O)N1 (stereo partly shown) [Compound 1718]

IC50 [1, 5]: 50 to 100 nM | % F ([2]; Table 10b): 14 ± 9% | Cl [2, 6]: 30 ± 1 mL/min/kg | t1/2 [2, 6]: 1.73 ± 0.417 h
SMILES: CC(O)[C@H]1C(=O)N[C@H](Cc2c[nH]c3ccccc23)C(=O)N[C@H](C)C#Cc2ccccc2OCCN[C@@H](C2(C)CC2)C(=O)N1C (stereo partly shown) [Compound 1713]

IC50 [1, 5]: 50 to 100 nM | Binding (%), Human Plasma Protein Binding [3]: 99.4% | % F ([2]; Table 10b): 39 ± 44% | Cl [2, 6]: 8 ± 1 mL/min/kg | t1/2 [2, 6]: 1.77 ± 0.217 h
SMILES: CC[C@@H]1C#Cc2ccccc2OCCN[C@@H](C(C)C)C(=O)N(C)[C@@H](C(C)O)C(=O)N[C@H](Cc2c[nH]c3ccccc23)C(=O)N1 (stereo partly shown) [Compound 1754]
